# Data reported in ChEMBL document CHEMBL1201862, “PubChem BioAssay data set” (2004).
# Active and inactive are the calls of the source.
# How the values were obtained:
# [1] = HepG2 cell cytotoxicity, dose response, cytotoxicity control for Shn3 inhibitor project, CellTiter-Glo, cherry-picked (AID 624134); type: functional, cell-based
# [2] = Shn3 3'UTR reporter inhibitors, dose response, cell-based, Clone20 osteoblasts, firefly luciferase, cherry-picked (AID 624132); type: functional;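 note: firefly luciferase luminescence from reporter carrying the Shn3 3'UTR in osteoblasts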
# [3] = molecular target: Mitogen-activated protein kinase 10 (Homo sapiens, UniProt P53779); assay: Dose response biochemical screening assay for inhibitors of c-Jun N-Terminal Kinase 3 (JNK3). [Related pubchem assays: 746 ]
# [4] = molecular target: FAD-linked sulfhydryl oxidase ALR (Homo sapiens, UniProt P55789); assay: inhibitors of human ALR sulfhydryl oxidase, dose response, biochemical, H2O2 detection, luminescence, cherry-pick (AID 493248)
# Large T antigen = Large T antigen (Simian virus 40, UniProt P03070); type: functional, Betapolyomavirus macacae;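 note: Confirmatory-stage PubChem screen for compounds that inhibit SV40 T antigen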
# Cytochrome P450 2C9 [5] = molecular target: T1, Cytochrome P450 2C9 (Homo sapiens, UniProt P11712)
# [6] = cytotoxicity toward NIH3T3 fibroblasts, dose response, counter-screen, cell-based, ATP luminescence, mouse fibroblasts (AID 2010); type: functional;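 note: cells exposed to compound for about 90 hours before reading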
# [7] = molecular target: Heat shock protein HSP 90-alpha (Homo sapiens, UniProt P07900); type: functional, organism-based
# [8] = inhibitors of intracellular T. cruzi replication, confirmation, NIH3T3 host cells, beta-gal luminescence (AID 2044); type: functional, cell-based;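 note: intracellular parasites grown in NIH/3T3 mouse fibroblasts as host cells; luminescent beta-galactosidase reporter signal from transgenic T. cruzi replicating inside host cells; inhibitors lower the luminescence signal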
# Hexokinase HKDC1 = molecular target: T2, Hexokinase HKDC1 (Homo sapiens, UniProt Q2TB90); assay: HKDC1 hexokinase inhibitors, dose response, biochemical, W721R variant (AID 504729); type: functional
# T2 sequence (Q2TB90 whole entry): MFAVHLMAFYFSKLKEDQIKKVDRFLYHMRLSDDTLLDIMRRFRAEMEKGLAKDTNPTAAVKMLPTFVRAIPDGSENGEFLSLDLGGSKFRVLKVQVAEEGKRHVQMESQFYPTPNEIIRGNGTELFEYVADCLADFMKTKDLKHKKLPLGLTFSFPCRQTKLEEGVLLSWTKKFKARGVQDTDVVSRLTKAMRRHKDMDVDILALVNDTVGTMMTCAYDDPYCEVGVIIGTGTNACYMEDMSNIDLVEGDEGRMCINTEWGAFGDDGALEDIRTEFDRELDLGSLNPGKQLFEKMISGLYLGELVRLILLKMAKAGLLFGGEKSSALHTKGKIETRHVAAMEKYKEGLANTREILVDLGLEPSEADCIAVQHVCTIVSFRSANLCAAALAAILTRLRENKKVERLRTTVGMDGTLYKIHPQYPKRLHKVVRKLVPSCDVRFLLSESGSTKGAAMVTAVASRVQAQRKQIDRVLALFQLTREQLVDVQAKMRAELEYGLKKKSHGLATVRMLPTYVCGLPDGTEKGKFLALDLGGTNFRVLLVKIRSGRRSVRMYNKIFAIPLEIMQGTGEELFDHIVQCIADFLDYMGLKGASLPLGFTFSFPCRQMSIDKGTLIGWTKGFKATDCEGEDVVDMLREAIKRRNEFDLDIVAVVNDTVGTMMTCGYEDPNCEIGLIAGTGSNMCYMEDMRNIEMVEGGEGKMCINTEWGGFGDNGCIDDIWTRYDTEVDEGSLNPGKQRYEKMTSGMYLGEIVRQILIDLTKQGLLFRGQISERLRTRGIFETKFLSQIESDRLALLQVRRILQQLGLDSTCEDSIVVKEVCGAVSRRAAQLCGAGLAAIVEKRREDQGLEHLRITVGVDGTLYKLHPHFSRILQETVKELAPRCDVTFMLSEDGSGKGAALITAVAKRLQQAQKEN
# Fatty acid synthase [9] = molecular target: T3, Fatty acid synthase (Homo sapiens, UniProt P49327); assay: FAS thioesterase domain inhibitors, dose response, biochemical, endpoint fluorescence intensity, uHTS hits (AID 624327); type: functional;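 note: fluorescence from hydrolysis of an O-methyl fluorescein acyl ester substrate by the enzyme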
# Fatty acid synthase [10] = molecular target: T3, Fatty acid synthase; assay: FAS thioesterase domain inhibitors, dose response, biochemical, kinetic fluorescence intensity (AID 624326); type: functional;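 note: rate of fluorescence rise from hydrolysis of a fluorogenic O-methyl fluorescein ester substrate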
# Cytochrome P450 1A2 = molecular target: T4, Cytochrome P450 1A2 (Homo sapiens, UniProt P05177);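 note: PubChem cytochrome P450 panel assay, CYP1A2 panel member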
# T4 sequence (P05177 whole entry): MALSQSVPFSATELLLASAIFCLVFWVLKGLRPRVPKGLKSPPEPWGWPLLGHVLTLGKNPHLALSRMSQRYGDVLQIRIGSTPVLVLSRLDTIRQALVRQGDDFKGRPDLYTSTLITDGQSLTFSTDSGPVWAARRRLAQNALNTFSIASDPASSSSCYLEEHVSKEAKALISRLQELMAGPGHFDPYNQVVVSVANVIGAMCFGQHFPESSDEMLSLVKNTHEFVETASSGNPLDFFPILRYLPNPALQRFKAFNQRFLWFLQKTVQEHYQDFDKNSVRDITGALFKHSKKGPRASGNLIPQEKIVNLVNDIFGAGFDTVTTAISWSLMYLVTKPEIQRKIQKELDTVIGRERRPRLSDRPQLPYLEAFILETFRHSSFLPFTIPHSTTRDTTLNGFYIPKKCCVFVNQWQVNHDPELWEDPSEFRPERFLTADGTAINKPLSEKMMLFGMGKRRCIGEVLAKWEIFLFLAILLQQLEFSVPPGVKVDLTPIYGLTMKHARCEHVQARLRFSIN
# [11] = control 3'UTR Renilla luciferase suppression, dose response, counter-screen for Shn3 inhibitor project, cell-based, Clone20-Shn3RL, cherry-picked (AID 624133); type: functional
# INS1 = assay: beta cell apoptosis inhibitors, cytokine rescue, dose response, luminescence, retest (AID 449756); type: functional, cell-based; conditions: Rattus norvegicus;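 note: cell death triggered by IL-1 beta plus TNF-alpha plus IFN-gamma mixture; protective hits raise ATP signal compared with cytokine alone wells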
# Cytochrome P450 3A4 = Cytochrome P450 3A4 (Homo sapiens, UniProt P08684);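 note: CYP3A4 tested as one member of a cytochrome P450 panel screen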
# Cytochrome P450 2D6 = Cytochrome P450 2D6 (Homo sapiens, UniProt P10635);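 note: CYP2D6 member of a cytochrome P450 panel assay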
# Cytochrome P450 2C9 [12] = molecular target: T1, Cytochrome P450 2C9; remark: listed apart in the source
# HEK293 [13] = assay: cells; conditions: Homo sapiens
# HEK293 [14] = assay: cells; conditions: Homo sapiens; remark: listed apart in the source
# Genome polyprotein = Genome polyprotein (dengue virus type 2, UniProt P29990); assay: Dengue-2 NS5 methyltransferase inhibitors, primary screen, biochemical, confirmation dose response (AID 588689); type: functional
# [15] = molecular target: Luciferin 4-monooxygenase (Photinus pyralis, UniProt P08659); assay: firefly luciferase enzyme inhibitors, dose response, biochemical, luminescence (AID 1891)
# [16] = Luminescence Cell-Based Dose Confirmation HTS to Identify Inhibitors of Platelet Dense Granule Release. [Related pubchem assays: 1663 (Primary HTS), 1678 (Summary of Project)]; type: functional
# HEK293 [17] = assay: inhibitors of LMP1-driven NF-kB reporter, dose response, cell-based, HEK293, luciferase, cherry-pick (AID 588343); type: functional; conditions: Homo sapiens
# [18] = molecular target: Dual specificity tyrosine-phosphorylation-regulated kinase 1A (Rattus norvegicus, UniProt Q63470); type: biochemical, Homo sapiens
# [19] = molecular target: Induced myeloid leukemia cell differentiation protein Mcl-1 (Homo sapiens, UniProt Q07820); type: functional
# Cytochrome P450 2C19 = Cytochrome P450 2C19 (Homo sapiens, UniProt P33261); assay: Cytochrome panel assay with activity outcomes. Panel member name: p450-cyp2c19 Compounds with AC50 equal or less than 10 uM are considered active; type: functional; conditions: read-out: AC50
# Chain of Mitogen-activated protein kinase 10 (P53779 whole entry): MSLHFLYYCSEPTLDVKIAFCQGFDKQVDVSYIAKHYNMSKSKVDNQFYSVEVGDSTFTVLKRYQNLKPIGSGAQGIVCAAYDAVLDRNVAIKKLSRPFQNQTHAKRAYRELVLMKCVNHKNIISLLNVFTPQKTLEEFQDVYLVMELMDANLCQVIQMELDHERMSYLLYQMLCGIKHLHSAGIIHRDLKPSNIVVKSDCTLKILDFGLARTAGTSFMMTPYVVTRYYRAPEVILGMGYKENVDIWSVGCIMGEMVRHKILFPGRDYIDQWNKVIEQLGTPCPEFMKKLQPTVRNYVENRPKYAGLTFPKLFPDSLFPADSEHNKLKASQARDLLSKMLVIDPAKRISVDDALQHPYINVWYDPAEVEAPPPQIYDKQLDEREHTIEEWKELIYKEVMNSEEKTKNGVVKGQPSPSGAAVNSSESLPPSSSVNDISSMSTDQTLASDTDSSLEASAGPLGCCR
# T3 sequence (P49327 whole entry, the tested form may be a part): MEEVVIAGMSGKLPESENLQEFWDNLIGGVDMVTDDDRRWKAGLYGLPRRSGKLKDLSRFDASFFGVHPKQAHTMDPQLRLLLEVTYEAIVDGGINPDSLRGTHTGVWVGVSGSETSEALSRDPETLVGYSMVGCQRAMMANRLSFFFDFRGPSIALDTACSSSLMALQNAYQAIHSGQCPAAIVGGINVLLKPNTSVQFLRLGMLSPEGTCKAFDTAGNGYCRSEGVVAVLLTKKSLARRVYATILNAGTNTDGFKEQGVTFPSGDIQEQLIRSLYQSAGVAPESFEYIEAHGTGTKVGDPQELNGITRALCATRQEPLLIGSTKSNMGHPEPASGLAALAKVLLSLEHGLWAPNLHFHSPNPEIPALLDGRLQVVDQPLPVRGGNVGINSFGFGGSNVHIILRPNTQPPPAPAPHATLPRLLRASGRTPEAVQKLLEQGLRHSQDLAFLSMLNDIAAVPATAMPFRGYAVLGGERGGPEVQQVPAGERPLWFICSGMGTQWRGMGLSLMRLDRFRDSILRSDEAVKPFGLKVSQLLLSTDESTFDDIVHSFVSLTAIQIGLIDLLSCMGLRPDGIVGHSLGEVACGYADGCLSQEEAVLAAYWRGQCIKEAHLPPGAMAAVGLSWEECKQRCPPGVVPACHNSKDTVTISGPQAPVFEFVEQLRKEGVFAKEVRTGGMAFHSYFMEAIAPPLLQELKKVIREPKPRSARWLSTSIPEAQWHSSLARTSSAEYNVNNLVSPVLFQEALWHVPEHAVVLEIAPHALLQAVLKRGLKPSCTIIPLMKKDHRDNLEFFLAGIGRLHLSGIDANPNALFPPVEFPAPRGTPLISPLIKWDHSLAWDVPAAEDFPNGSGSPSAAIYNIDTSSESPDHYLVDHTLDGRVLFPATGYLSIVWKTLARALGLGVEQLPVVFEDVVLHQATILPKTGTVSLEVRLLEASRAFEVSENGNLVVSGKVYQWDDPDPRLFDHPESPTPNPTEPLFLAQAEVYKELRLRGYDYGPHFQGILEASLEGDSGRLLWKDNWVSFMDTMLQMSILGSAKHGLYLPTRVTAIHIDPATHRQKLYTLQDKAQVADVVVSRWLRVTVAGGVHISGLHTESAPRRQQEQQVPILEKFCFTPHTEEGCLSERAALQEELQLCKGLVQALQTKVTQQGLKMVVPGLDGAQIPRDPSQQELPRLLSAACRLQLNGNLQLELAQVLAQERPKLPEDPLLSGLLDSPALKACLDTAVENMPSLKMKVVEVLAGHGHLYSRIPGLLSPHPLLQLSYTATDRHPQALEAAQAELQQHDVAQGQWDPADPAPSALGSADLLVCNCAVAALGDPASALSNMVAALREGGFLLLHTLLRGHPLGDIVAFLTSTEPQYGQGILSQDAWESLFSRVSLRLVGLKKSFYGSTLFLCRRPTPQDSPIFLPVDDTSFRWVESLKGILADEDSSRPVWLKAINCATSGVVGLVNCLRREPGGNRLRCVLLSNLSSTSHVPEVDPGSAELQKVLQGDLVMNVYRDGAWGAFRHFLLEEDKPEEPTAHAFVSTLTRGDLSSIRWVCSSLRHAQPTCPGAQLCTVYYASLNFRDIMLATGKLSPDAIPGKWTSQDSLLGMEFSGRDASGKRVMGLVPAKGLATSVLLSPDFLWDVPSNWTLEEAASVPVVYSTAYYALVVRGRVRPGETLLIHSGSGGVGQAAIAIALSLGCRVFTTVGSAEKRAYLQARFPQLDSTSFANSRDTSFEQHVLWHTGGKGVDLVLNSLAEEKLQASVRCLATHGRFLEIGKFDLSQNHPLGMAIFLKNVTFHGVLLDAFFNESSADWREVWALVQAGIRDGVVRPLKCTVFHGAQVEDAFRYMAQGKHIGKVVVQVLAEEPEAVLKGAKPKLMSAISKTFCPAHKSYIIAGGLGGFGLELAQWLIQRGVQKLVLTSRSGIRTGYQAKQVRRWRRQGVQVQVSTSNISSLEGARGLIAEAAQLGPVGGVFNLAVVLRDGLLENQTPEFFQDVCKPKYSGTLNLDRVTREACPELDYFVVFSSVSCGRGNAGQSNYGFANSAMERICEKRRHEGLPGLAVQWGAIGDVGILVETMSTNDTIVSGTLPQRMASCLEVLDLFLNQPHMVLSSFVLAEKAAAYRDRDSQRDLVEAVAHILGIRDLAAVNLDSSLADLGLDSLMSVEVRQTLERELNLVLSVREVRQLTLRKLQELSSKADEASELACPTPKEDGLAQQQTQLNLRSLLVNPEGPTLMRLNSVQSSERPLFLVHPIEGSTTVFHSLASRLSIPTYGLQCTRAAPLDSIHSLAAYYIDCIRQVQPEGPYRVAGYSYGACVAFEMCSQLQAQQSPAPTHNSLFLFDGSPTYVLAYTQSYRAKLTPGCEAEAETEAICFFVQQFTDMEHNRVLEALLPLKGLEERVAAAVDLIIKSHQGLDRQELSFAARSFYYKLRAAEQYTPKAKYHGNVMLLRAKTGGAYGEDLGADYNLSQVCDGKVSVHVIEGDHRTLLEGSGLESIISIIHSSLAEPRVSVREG
# T1 sequence (P11712 whole entry): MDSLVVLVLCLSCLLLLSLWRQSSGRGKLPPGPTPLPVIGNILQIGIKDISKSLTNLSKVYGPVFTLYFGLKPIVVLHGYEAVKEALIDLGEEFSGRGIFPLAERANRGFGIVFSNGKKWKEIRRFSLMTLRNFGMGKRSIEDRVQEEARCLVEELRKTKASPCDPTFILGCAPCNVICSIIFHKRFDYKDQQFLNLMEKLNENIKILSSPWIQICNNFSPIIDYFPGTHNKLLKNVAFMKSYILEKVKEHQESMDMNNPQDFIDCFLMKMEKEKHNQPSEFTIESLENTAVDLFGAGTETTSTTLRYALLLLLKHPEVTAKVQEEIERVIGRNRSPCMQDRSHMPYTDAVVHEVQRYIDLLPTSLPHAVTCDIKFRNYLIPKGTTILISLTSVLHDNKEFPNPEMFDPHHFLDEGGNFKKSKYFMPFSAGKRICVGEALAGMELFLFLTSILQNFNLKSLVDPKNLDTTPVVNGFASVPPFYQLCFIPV
# Chain of Cytochrome P450 3A4 (P08684 whole entry): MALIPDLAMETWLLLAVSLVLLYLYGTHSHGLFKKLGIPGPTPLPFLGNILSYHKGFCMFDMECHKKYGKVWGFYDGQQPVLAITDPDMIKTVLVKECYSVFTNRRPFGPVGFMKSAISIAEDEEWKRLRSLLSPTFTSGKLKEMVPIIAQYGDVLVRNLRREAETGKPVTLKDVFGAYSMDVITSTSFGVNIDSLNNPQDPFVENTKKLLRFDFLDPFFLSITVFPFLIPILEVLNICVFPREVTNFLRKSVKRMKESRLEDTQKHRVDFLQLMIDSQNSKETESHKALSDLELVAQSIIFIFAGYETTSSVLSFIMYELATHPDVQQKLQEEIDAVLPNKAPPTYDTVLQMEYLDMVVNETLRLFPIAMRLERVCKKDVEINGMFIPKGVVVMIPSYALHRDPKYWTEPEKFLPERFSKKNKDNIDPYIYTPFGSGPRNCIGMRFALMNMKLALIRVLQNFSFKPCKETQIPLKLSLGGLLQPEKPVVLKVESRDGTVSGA
# Chain of Induced myeloid leukemia cell differentiation protein Mcl-1 (Q07820 whole entry): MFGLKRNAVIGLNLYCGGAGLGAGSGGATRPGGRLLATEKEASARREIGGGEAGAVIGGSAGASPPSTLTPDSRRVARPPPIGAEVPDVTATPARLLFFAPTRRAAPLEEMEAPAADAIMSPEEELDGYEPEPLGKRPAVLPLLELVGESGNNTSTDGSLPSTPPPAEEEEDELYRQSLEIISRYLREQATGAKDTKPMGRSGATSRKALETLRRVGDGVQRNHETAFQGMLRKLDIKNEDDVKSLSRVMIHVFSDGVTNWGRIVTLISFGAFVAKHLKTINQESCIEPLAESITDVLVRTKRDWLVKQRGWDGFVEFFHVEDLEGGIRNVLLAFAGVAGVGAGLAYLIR
# Chain of Large T antigen (P03070 whole entry): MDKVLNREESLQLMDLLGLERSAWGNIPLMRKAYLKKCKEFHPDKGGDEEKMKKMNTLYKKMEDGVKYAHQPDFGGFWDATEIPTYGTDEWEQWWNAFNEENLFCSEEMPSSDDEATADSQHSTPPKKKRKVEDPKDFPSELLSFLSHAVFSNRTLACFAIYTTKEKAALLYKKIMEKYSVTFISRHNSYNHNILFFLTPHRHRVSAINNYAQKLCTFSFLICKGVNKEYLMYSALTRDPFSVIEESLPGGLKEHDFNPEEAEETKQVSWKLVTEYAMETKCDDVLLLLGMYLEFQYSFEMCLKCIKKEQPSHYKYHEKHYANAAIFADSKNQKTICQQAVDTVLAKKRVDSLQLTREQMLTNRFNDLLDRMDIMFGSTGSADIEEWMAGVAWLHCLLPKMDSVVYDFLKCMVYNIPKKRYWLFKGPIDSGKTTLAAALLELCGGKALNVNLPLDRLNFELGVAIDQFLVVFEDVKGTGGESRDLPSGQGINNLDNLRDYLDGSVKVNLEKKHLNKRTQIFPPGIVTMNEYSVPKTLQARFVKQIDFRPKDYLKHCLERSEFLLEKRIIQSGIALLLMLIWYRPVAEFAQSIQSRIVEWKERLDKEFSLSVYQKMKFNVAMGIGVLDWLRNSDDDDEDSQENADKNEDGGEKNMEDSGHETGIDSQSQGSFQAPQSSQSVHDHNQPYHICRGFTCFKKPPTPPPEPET
structure (smiles),measurement,setting,value
CSc1nc(N2CCN(Cc3ccc4c(c3)OCO4)CC2)c2ccccc2n1,AC50,[1],> 70 µM (inactive)
same,AC50,[2],24.1 µM (active)
O=C(CCCn1c(=O)[nH]c2cc(Cl)ccc2c1=O)NCC1CCCO1 (stereo unspecified),IC50,[3],> 31 µM (not active)
CCN(CC)c1ccc(NC(=O)c2cnn(CC)c2)cc1,AC50,[4],0.215 µM (active)
same,IC50,Large T antigen,6.73 µM (active)
same,AC50,Cytochrome P450 2C9 [5],inconclusive
CCCCCCCCC/C(=N\O)c1ccccn1,EC50,[6],> 30 µM (not active)
same,AC50,[7],4.09 µM (active)
same,EC50,[8],1.97 µM (active)
CCCc1nc2oc3c(OC)ncnc3c2c2c1COC(C)(C)C2,IC50,Hexokinase HKDC1,23 µM (inactive)
CCc1cc(=O)oc2cc(C)cc(OC(=O)c3ccco3)c12,IC50,[3],> 93.1 µM (not active)
Cc1cc(NC(=O)COC(=O)c2[nH]nc3ccccc23)no1,IC50,[3],62.7 µM (not active)
O=[N+]([O-])c1ccc(NC(S)=NCCc2ccccc2)cc1,IC50,Fatty acid synthase [9],24.7 µM (inactive)
same,IC50,Fatty acid synthase [10],15 µM (active)
COc1ccc(C(=O)N/C(=C\c2ccc([N+](=O)[O-])cc2)C(=O)NC(CCSC)C(=O)O)cc1 (stereo unspecified),IC50,Fatty acid synthase [9],7.76 µM (active)
same,IC50,Fatty acid synthase [10],5.76 µM (active)
COc1ccc(CNC(=O)/C=C/c2cc([N+](=O)[O-])ccc2OC(F)F)cc1,IC50,Fatty acid synthase [9],1.17 µM (active)
same,IC50,Fatty acid synthase [10],1.37 µM (active)
O=C1C2C3C=CC(C3)C2C(=O)N1CN(Cc1ccccc1)CN1C(=O)C2C3C=CC(C3)C2C1=O (stereo unspecified),AC50,[7],17.4 µM (active)
CCn1c(COc2ccccc2)nnc1SCC(=O)Nc1cc(OC)ccc1OC,AC50,Cytochrome P450 1A2,25.1 µM (inconclusive)
same,AC50,Cytochrome P450 2C9 [5],inconclusive
COc1ccc(CCNc2cc(N3CCN(C(=O)c4ccccc4OC)CC3)ccc2[N+](=O)[O-])cc1OC,AC50,[1],2.98 µM (active)
same,AC50,[11],10.5 µM (active)
same,AC50,INS1,4.67 µM (active)
same,AC50,[2],2.63 µM (active)
CCCc1nc2c(c(=O)c3ccccc3n2C)c(=O)n1-c1ccc(F)cc1,IC50,Hexokinase HKDC1,6.43 µM (active)
CCCCCOC(=O)C1=C(C)NC(=O)NC1c1ccc([N+](=O)[O-])cc1 (stereo unspecified),IC50,Fatty acid synthase [9],9.26 µM (active)
same,IC50,Fatty acid synthase [10],14.9 µM (active)
Cc1ccc(S(=O)(=O)NCCC(=O)NCc2ccccc2)cc1,AC50,Cytochrome P450 3A4,25.1 µM (inconclusive)
same,AC50,Cytochrome P450 1A2,17.8 µM (inconclusive)
same,AC50,Cytochrome P450 2D6,25.1 µM (inconclusive)
same,AC50,Cytochrome P450 2C9 [5],inconclusive
COc1cccc(OCC(=O)Nc2ccccc2C(N)=O)c1,IC50,[3],55.2 µM (not active)
CCN(CC)N=Nc1[nH]nc2nc(C)cc(C)c12,AC50,Cytochrome P450 2C9 [12],17.8 µM (inconclusive)
same,AC50,Cytochrome P450 2D6,12.6 µM (inconclusive)
same,AC50,[7],2.42 µM (active)
CC[C@]1(C(=O)OC)[C@H]2C(=O)N(Cc3ccccc3)C(=O)[C@H]2[C@H]2CN=C(SCc3ccc(C(=O)OC)cc3)N21,EC50,HEK293 [13],> 59.6 µM (inactive)
same,EC50,HEK293 [14],> 59.6 µM (inactive)
O=C1c2ccccc2C(=O)N1OS(=O)(=O)c1ccc(F)cc1,IC50,Genome polyprotein,> 100 µM (active)
same,EC50,[15],> 112 µM (not active)
same,IC50,Fatty acid synthase [9],5.85 µM (active)
same,EC50,[16],> 56.1 µM (not active)
same,IC50,Fatty acid synthase [10],3.91 µM (active)
COc1ccc(C2=NN(CN3C(=O)C(=O)c4ccccc43)C(c3cccc([N+](=O)[O-])c3)C2)cc1 (stereo unspecified),IC50,Fatty acid synthase [9],12.4 µM (active)
same,IC50,Fatty acid synthase [10],13 µM (active)
CC(=O)Nc1nc(C)c(-c2csc(Nc3ccc(O)cc3)n2)s1,AC50,[4],0.17 µM (active)
same,AC50,HEK293 [17],3.85 µM (active)
same,AC50,[18],0.988 µM (active)
same,IC50,[3],> 93.1 µM (not active)
O=C(O)CCC(=O)NCCc1c(/C=C2/C(=O)NC(=S)N(Cc3ccc(F)cc3)C2=O)[nH]c2ccccc12,IC50,Genome polyprotein,> 100 µM (active)
same,IC50,Large T antigen,55.4 µM (active)
same,IC50,[19],1.42 µM (active)
CN(C)CC1Oc2ccccc2OC1(O)c1ccccc1 (stereo unspecified),AC50,[7],2.52 µM (active)
Cc1ccc(NC(=O)c2sc3ncnc(O)c3c2C)c(C)c1,AC50,Cytochrome P450 3A4,15.8 µM (inconclusive)
same,AC50,Cytochrome P450 1A2,14.1 µM (inconclusive)
same,AC50,Cytochrome P450 2C19,14.1 µM (inconclusive)
same,AC50,Cytochrome P450 2C9 [5],inconclusive
Cc1cc2cc(CCNC(=O)c3ccc(S(=O)(=O)N4CCOCC4)cc3)c(O)nc2cc1C,IC50,Hexokinase HKDC1,11.1 µM (active)
C[C@@]12CC[C@@H]3c4ccc(O)cc4CC[C@H]3[C@H]1C[C@@H](O)[C@H]2O,AC50,Cytochrome P450 2C19,7.94 µM (inconclusive)
same,AC50,Cytochrome P450 2C9 [5],inconclusive
CC(=O)c1cc(C#N)c(SCc2ccccn2)nc1C,IC50,[19],5.73 µM (not active)
